Experimental findings from ChEMBL document CHEMBL1201862, “PubChem BioAssay data set” (2004) are described below.

Where “and” joins values, the source holds several entries; their conditions need not be identical. Equal values may be shown once. Where a name gives a salt, the structure may show the parent alone. Calls of active or inactive are those of the source. Bounds are passed on as bounds.

Assay [1] concerns the target SUMO-activating enzyme (Homo sapiens, UniProt Q9UBT2). The experiment in a line: inhibitors of in vitro SUMOylation cascade, primary screen, biochemical, HTRF, uHTS (AID 2006). Type of assay: protein-complex assay.
The subject of assay [2] is H4. The experiment in a line: Luminescence Cell-Based Dose Response HTS to Identify Activators of 5'UTR Stem-Loop Driven Prion Protein mRNA Translation in H4 Neuroglioblastoma Cells. [Related pubchem assays: 1829 (Project Summary), 1814 (Primary HTS)]. It is filed as functional. To be noted: Homo sapiens.
A short description of assay [3]: HeLa cell cytotoxicity, dose response, cytotoxicity control for MgcRacGAP inhibitor project (AID 624300). Type of assay: functional.
The target in assay [4] is T1, Alkaline phosphatase, tissue-nonspecific isozyme (Homo sapiens, UniProt P05186).
T1 sequence (P05186 whole entry): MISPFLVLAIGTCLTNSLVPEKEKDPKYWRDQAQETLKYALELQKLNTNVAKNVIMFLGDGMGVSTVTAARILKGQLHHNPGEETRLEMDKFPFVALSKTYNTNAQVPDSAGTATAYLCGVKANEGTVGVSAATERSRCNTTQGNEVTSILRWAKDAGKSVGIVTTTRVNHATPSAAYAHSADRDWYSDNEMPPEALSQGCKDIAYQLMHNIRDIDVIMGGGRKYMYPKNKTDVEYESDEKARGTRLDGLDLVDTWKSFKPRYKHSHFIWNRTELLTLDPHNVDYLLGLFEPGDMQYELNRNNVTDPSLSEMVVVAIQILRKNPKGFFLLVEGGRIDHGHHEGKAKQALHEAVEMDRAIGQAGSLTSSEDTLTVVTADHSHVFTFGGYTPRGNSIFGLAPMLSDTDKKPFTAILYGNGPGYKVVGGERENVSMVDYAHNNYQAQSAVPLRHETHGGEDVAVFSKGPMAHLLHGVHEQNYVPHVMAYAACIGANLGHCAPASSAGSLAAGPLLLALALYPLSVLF
The assay can be described thus: inhibition of tissue-nonspecific alkaline phosphatase – biochemical, dose response (AID 488882). Type of assay: functional.

Assay [5] in a line: Luminescence Cell-Based Dose Confirmation to Identify Activators of 5'UTR Stem-Loop Driven Alpha-Synuclein mRNA Translation in H4 Neuroglioblastoma Cells. [Related pubchem assays: 1829 (Project Summary), 1814 (Primary HTS)]. Type of assay: functional.
Assay [6] concerns the target CAAX prenyl protease 1 (Saccharomyces cerevisiae S288c, UniProt P47154). The assay can be described thus: Ste24 protease inhibitors, dose response, biochemical, S. cerevisiae, plate reader, cherry-pick (AID 488815).
Assay [7] deals with Induced myeloid leukemia cell differentiation protein Mcl-1 (Homo sapiens, UniProt Q07820). The experiment in a line: MCL1-BIM BH3 interaction inhibitors, dose response, biochemical, fluorescence polarization, BIM-BH3 peptide, 1536-well (AID 2217). On the technique in general: Polarisation of emitted light reports the rotation of a fluorescent probe.
Assay [8] addresses T2, Polyadenylate-binding protein 1 (Homo sapiens, UniProt P11940). The assay can be described thus: PABP1 MLLE–PAM2 binding inhibitor potency, dose response, biochemical, fluorescence polarization, FITC-PAM2 peptide (AID 602259). It is filed as functional. The following applies: read-out: IC50_Mean.
Assay [9] concerns the target T3, Zinc finger protein mex-5 (Caenorhabditis elegans, UniProt Q9XUB2).
T3 sequence (Q9XUB2 whole entry): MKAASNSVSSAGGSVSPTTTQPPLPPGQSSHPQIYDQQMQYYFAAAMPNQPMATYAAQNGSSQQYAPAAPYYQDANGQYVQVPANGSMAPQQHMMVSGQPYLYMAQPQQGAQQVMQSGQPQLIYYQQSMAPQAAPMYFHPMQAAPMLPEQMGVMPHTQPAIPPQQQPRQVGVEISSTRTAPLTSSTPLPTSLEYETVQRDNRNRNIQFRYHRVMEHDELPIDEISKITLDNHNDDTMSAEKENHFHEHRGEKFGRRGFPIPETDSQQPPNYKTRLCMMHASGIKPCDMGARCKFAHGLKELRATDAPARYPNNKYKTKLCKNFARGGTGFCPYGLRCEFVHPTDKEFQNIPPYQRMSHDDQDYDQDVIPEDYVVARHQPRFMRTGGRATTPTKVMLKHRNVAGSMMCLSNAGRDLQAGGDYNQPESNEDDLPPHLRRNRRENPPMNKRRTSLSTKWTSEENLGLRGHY
The assay can be described thus: MEX-5/TCR-2 RNA interaction inhibitors, dose response, biochemical, C. elegans, fluorescence polarization (AID 1960).

Assay [10] has as its target T2, Polyadenylate-binding protein 1. The experiment in a line: PABP1 MLLE–PAM2 interaction inhibitors, dose response, miRNA deadenylation inhibitor project, biochemical, fluorescence polarization, Cy5-PAM2 peptide, secondary (AID 602260). Type of assay: functional. The following applies: read-out: IC50_Mean.
Assay [11] deals with Tyrosine-protein kinase ITK/TSK (Homo sapiens, UniProt Q08881). Type of assay: functional.
Assay [12] concerns the target Tyrosine-protein kinase JAK3 (Homo sapiens, UniProt P52333). Type of assay: functional.
Assay [13] has as its target Activated CDC42 kinase 1 (Homo sapiens, UniProt Q07912). The assay can be described thus: Navigating the Kinome. Panel member name: ACK1. Type of assay: functional.
In assay [14] the target is Tyrosine-protein kinase JAK2 (Homo sapiens, UniProt O60674). Type of assay: functional.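 Also: JAK2 tested as one member of a kinase panel.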
Assay [15] concerns the target Tyrosine-protein kinase SYK (Homo sapiens, UniProt P43405). It is filed as functional.
In assay [16] the target is cAMP-dependent protein kinase catalytic subunit PRKX (Homo sapiens, UniProt P51817). It is filed as functional.
For assay [17], the target named is Calcium/calmodulin-dependent protein kinase type II subunit delta (Homo sapiens, UniProt Q13557). Type of assay: functional.
Assay [18] deals with Protein kinase C gamma type (Homo sapiens, UniProt P05129). It is filed as functional.
Assay [19] concerns the target Serine/threonine-protein kinase PLK1 (Homo sapiens, UniProt P53350). Type of assay: functional.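 Also: PLK1 measured as one member of a kinome-wide profiling panel.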
The target in assay [20] is Serine/threonine-protein kinase Nek2 (Homo sapiens, UniProt P51955). Type of assay: functional.
For assay [21], the target named is Fibroblast growth factor receptor 3 (Homo sapiens, UniProt P22607). Type of assay: functional.
For assay [22], the target named is Interleukin-1 receptor-associated kinase 4 (Homo sapiens, UniProt Q9NWZ3). Type of assay: functional.
Assay [23] has as its target Serine/threonine-protein kinase PAK 4 (Homo sapiens, UniProt O96013). Type of assay: functional.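 Also: value obtained within a kinome profiling panel in which PAK4 was one of the panel members.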
Assay [24] concerns the target Aurora kinase B (Homo sapiens, UniProt Q96GD4). Type of assay: functional.

T2 sequence (P11940 whole entry): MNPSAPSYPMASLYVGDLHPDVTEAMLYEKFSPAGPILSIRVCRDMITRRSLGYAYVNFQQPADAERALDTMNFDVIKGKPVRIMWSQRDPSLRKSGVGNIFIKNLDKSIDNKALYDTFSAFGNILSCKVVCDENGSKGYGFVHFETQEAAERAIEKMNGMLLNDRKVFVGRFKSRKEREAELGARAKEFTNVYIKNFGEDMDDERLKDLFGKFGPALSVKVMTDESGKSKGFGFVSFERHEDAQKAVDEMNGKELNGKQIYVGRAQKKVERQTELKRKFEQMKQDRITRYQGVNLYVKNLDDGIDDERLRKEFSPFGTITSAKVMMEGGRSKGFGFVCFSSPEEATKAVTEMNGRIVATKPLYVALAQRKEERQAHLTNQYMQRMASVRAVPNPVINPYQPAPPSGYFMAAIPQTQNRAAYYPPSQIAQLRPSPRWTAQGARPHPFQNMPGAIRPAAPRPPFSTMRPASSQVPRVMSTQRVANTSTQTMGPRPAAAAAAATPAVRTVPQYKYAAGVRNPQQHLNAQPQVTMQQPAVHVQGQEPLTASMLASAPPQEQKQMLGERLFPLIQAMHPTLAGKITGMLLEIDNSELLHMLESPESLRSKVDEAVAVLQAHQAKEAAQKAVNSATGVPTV
Sequence of Activated CDC42 kinase 1 (Q07912 whole entry): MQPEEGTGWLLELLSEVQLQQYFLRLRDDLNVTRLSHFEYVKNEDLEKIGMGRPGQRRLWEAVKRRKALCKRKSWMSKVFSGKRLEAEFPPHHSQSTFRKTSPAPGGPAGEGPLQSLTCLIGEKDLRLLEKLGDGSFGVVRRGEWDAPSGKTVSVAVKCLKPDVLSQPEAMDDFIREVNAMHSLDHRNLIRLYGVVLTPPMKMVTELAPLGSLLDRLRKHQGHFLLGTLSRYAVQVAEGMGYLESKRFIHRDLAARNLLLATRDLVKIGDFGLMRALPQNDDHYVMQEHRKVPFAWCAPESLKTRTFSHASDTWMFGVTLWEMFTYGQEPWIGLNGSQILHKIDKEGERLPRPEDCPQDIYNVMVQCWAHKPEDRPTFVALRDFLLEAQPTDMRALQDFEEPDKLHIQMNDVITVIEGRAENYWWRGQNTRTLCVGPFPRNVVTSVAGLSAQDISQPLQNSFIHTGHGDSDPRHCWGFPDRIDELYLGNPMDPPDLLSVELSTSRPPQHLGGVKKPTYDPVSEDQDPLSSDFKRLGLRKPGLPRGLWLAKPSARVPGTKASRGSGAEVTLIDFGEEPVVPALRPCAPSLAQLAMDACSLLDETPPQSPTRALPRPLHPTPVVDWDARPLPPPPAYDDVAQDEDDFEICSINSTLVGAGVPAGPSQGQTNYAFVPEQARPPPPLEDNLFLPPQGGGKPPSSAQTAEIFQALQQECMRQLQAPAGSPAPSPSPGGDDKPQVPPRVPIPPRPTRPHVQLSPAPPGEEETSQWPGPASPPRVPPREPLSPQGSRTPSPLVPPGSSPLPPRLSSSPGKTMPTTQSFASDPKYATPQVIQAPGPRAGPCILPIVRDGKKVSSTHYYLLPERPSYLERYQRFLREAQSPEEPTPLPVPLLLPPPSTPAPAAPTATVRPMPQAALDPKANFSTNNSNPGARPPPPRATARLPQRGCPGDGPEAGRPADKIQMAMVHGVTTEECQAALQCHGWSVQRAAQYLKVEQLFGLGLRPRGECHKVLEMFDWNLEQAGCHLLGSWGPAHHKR
Sequence of cAMP-dependent protein kinase catalytic subunit PRKX (P51817 whole entry): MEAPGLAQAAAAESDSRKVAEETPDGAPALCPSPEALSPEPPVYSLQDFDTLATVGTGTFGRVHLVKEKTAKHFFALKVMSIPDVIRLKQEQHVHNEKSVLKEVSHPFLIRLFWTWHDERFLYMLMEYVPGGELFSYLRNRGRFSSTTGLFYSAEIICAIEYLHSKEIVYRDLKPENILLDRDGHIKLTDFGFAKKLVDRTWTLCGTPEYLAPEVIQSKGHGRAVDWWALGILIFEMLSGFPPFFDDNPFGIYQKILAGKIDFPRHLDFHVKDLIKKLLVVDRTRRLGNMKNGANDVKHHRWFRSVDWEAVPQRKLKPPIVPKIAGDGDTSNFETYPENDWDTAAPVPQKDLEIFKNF
Sequence of Serine/threonine-protein kinase Nek2 (P51955 whole entry): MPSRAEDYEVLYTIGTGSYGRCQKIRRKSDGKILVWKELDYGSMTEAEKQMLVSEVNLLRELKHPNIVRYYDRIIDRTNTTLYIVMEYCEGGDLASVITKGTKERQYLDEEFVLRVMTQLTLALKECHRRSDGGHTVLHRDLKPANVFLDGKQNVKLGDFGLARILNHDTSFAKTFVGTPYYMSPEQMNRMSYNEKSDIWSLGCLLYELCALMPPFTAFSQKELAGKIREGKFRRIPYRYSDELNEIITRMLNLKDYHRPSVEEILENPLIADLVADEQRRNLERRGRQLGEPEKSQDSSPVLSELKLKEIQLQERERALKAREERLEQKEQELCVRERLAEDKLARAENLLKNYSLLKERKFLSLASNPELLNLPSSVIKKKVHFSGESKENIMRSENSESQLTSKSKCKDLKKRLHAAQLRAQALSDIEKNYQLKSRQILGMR
Sequence of Aurora kinase B (Q96GD4 whole entry): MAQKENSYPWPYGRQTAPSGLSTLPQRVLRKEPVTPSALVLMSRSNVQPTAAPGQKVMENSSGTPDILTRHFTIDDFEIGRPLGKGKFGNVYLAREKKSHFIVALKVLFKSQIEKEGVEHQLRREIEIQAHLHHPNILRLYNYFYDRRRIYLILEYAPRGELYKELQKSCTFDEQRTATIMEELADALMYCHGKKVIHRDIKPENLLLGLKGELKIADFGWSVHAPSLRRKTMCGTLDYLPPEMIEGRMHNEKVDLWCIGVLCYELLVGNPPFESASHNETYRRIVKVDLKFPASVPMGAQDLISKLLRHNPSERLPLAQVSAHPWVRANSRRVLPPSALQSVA
Sequence of Serine/threonine-protein kinase PLK1 (P53350 whole entry): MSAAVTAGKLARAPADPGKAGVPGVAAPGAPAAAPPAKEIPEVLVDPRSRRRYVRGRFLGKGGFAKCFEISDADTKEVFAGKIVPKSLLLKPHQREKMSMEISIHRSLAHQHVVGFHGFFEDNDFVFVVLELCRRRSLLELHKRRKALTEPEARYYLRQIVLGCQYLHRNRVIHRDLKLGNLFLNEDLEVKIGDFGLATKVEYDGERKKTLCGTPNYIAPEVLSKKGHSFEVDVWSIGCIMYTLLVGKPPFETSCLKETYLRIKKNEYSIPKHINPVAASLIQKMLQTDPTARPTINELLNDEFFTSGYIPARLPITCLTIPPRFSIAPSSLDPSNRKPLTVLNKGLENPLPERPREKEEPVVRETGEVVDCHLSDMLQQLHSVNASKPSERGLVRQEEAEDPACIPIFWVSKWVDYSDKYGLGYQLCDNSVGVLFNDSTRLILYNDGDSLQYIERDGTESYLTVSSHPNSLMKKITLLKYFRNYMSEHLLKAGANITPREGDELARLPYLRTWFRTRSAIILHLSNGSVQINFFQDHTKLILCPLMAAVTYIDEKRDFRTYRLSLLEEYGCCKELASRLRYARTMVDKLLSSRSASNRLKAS
Sequence of Tyrosine-protein kinase ITK/TSK (Q08881 whole entry): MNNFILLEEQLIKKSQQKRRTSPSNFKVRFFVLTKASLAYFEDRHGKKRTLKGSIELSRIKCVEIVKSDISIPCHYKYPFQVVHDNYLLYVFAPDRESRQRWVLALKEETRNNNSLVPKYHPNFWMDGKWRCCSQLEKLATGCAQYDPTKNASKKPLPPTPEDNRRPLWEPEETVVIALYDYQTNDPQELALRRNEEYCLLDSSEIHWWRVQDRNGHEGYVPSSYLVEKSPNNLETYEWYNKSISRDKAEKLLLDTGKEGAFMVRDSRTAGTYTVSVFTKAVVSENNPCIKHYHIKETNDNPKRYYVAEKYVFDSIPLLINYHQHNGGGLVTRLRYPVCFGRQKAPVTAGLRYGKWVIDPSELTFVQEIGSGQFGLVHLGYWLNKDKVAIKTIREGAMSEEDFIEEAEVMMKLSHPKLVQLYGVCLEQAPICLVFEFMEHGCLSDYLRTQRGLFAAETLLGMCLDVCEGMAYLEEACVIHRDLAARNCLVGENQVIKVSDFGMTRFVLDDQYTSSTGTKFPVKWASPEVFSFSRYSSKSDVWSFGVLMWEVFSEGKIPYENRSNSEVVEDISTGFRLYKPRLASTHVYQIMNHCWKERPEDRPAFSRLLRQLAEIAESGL

As for `CCC(C)n1c(NC(=O)c2ccccc2)c(C#N)c2nc3ccccc3nc21` (centres undefined), the IC50 in assay [1] is 8.4 µM (active).

`CCN1/C(=C\c2ccc3ccccc3[n+]2CC)Sc2cc(C)ccc21`: the EC50 (usually the concentration needed to bring the measured effect to its halfway point) in [2] is reported as > 120 µM (not active); in assay [5] it was > 12 µM (not active). In [3], the CC50 (as a rule, the concentration that lowers cell viability or growth by half) is 14.4 µM (active). Moreover, in assay [4], the IC50 is 28.6 µM (active).

Regarding `CCCCCCCCCCOC(=O)C[n+]1c(COc2ccc(C)cc2)n(C)c2ccccc21`, the AC50 (commonly the concentration giving half of the maximal activity seen) in [6] is 7.21 µM (active).

As to `CC[C@@H](CO)NC(=O)[C@@H]1C=C2c3cccc4c3c(cn4C)C[C@H]2N(C)C1` [METHYSERGIDE MALEATE], the IC50 in assay [7] is 20.4 µM (not active); in assay [8], 32.2 µM (inactive); in [10] it was > 66 µM (inactive). Also, in [9], the EC50 is 12.3 µM (active) and 20 µM (inconclusive).

Regarding `CN1CCN(c2nc(C3=C(c4c[nH]c5ccccc45)C(=O)NC3=O)c3ccccc3n2)CC1` [SOTRASTAURIN], the Ki (commonly a measure of affinity in units of concentration, obtained from inhibition or displacement) in assay [11] was > 1.58 µM (inactive); in assay [12] it was 0.631 µM (active); in assay [13], > 3.98 µM (inactive); in [14], > 2.51 µM (inactive); in [15], > 1.58 µM (inactive); in assay [16] it was > 2.51 µM (inactive). In addition, the inhibition constant (Ki) is 0.0316 µM (active) in assay [17]; 0.0126 µM (active) in [18]; 0.0631 µM (active) in [19]; > 6.31 µM (inactive) in assay [20]; > 2 µM (inactive) in assay [21]; > 10 µM (inactive) in [22]. The Ki in assay [23] and in assay [24] was > 5.01 µM (inactive) in each case.
